Patent US4209443A, “Process for separating pharmaceutically active diindole alkaloids” (priority 1976, dated 1980)

Legend:
[1] = known vinca alkaloids; cited from earlier work
in vivo = details: mouse, ip
[2] = system: L 1210/Ref (vinca-refractory) mouse lymphoid leukemia; experiment: Average survival prolongation and tumor-inhibiting effect, L 1210/Ref (vinca-refractory) lymphoid leukemia, i.p.; assay type: in vivo, mouse (BDF1 mice); details: mouse, in vivo
Description: (§1) The pharmacological tests were performed on transplantable tumors of rats and mice. The effects on L 1210/VS(vinca-sensitive) mouse lymphoid leukemia and L 1210/Ref (vinca-refractory) mouse lymphoid leukemia were tested on BDF1 mice, the effects on Ehrlich ascites carcinomatous tumors and S 37 ascites sarcomatous tumors were examined on Swiss mice, whereas the effects on Novikoff hepatoma were examined on Wistar rats.
(§2) The 4-deacetoxy-vinblastine sulfate was dissolved in physiological saline and the solution was administered intraperitoneally into the animals to be tested. In the tests the average prolongation of survival period and the tumor-inhibiting effect were examined in relation to the untreated controls. In the Table the symbol T/c represents the ratio of treated animals to the controls, and the term "number of limit-days" means the fourfold of the average survival period observed in the control group.

Novikoff hepatoma = experiment: Average survival prolongation and tumor-inhibiting effect, Novikoff hepatoma, i.p.; assay type: in vivo, rat (Wistar rats); details: relative to the other transplanted tumors
Description: as §1, §2

[3] = system: transplantable tumors of rats and mice; experiment: Tumor-inhibiting effect on transplantable tumors of rats and mice; assay type: in vivo; details: all transplanted tumors other than L 1210/Ref
Description: as §1, §2

[4] = Toxicity (LD50, i.p., mice); details: mouse, in vivo, ip

SMILES	Neurotoxicity accompanied with paralytic symptoms (known side-effect) [1]	LD50 (in vivo) [mg/kg]	sensitivity of L 1210/Ref leukemia [2]	inhibiting effect on Novikoff hepatoma (Novikoff hepatoma)	inhibiting effect on all the other transplanted tumors [3]	LD50 [4] [mg/kg]
CC[C@]1(O)C[C@@H]2CN(CCc3c([nH]c4ccccc34)[C@@](C(=O)OC)(c3cc4c(cc3OC)N(C)[C@H]3[C@@](O)(C(=O)OC)[C@H](OC(C)=O)[C@]5(CC)C=CCN6CC[C@]43[C@@H]65)C2)C1 [Vinblastine, vinblastine]	characteristic adverse side-effect	7.5				
CC[C@]1(O)C[C@@H]2CN(CCc3c([nH]c4ccccc34)[C@@](C(=O)OC)(c3cc4c(cc3OC)N(C)[C@@H]3[C@]45CCN4CC=C[C@@](CC)(C[C@]3(O)C(=O)OC)[C@H]45)C2)C1 [4-Deacetoxy-vinblastine, 4-deacetoxy-vinblastine]			not sensitive	most intensive	significant dosage-dependent inhibiting effect	> 23
